Reference: ChEMBL document CHEMBL4138198, “Synthesis of new 1-benzyl tetrahydropyridinylidene ammonium salts and their antimicrobial and anticellular activities” (Eur J Med Chem, 2018)
pIC50: −log10 of the molar value. Values after ≈ are worked out from the molar mass of the structure shown.

Experiments:
[1] = Selectivity index, ratio of IC50 for rat L6 cells to IC50 for erythrocytic stage of Plasmodium falciparum NF54; format: toxicity; details: read-out: Ratio IC50
[2] = Selectivity index, ratio of IC50 for rat L6 cells to IC50 for Trypanosoma brucei rhodesiense STIB900 bloodstream forms; format: toxicity; details: read-out: Ratio IC50
[3] = test system: L6; assay: Cytotoxicity against rat L6 cells after 70 hrs by Alamar blue staining-based fluorometric analysis; format: cell-based; details: L6, 70 h
[4] = test system: Trypanosoma brucei rhodesiense; assay: Antitrypanosomal activity against Trypanosoma brucei rhodesiense STIB900 bloodstream forms after 70 hrs by Alamar blue staining-based fluorometric analysis; format: functional, organism-based; details: STIB900, 70 h
[5] = test system: Plasmodium falciparum; assay: Antimalarial activity against erythrocytic stage of Plasmodium falciparum NF54 assessed as inhibition of [3H]-hypoxanthine incorporation after 48 hrs by liquid scintillation counting analysis; format: functional, organism-based
[6] = test system: Plasmodium berghei; assay: Antiplasmodial activity against GFP expressing Plasmodium berghei ANKA infected in NMRI mouse assessed as mouse mean survival days at 10 mg/kg, ip administered 4 hrs, 24 hrs, 48 hrs, 72 hrs post infection for 4 days and measured 72 hrs post infection by FACS analysis (reference value: 4 days); format: functional
[7] = test system: Plasmodium berghei; assay: Antiplasmodial activity against GFP expressing Plasmodium berghei ANKA infected in NMRI mouse assessed as reduction in parasitemia at 10 mg/kg, ip administered 4 hrs, 24 hrs, 48 hrs, 72 hrs post infection for 4 days and measured 72 hrs post infection by FACS analysis relative to control; format: functional; set-up: scale not given: the % may be the effect or the level left
[8] = Growth inhibition of human MRC5 cells at 117 uM after 72 hrs by XTT assay relative to control; format: cell-based; details: read-out: GI
[9] = Growth inhibition of human MRC5 cells assessed as metabolic active cells level at 123.3 uM after 72 hrs by XTT assay relative to control; format: ADME, cell-based; details: read-out: Activity
[10] = test system: Klebsiella oxytoca; assay: Antimicrobial activity against Klebsiella oxytoca ATCC 8724 assessed as zone of inhibition at 50 ug per disc after 24 hrs by disc diffusion assay; format: functional; details: ATCC 8724, 24 h, read-out: DIZ
[11] = test system: Mycolicibacterium smegmatis; assay: Antimycobacterial activity against Mycobacterium smegmatis ATCC 14468 after 72 hrs by MTT dye-based microbroth dilution assay; format: functional; details: ATCC 14468, 72 h
[12] = test system: MRC5; assay: Cytotoxicity against human MRC5 cells after 72 hrs by XTT assay; format: cell-based; details: MRC5, 72 h
[13] = test system: Staphylococcus aureus; assay: Antimicrobial activity against Staphylococcus aureus subsp. aureus ATCC 25923 assessed as zone of inhibition at 50 ug per disc after 24 hrs by disc diffusion assay; format: functional; details: ATCC 25923, 24 h, read-out: DIZ
[14] = test system: Candida tropicalis; assay: Antimicrobial activity against Candida tropicalis ATCC 13803 assessed as zone of inhibition at 50 ug per disc after 48 hrs by disc diffusion assay; format: functional; details: ATCC 13803, 48 h, read-out: DIZ
[15] = Growth inhibition of human MRC5 cells assessed as metabolic active cells level at 147.7 uM after 72 hrs by XTT assay relative to control; format: ADME, cell-based; details: read-out: Activity
[16] = test system: Escherichia coli; assay: Antimicrobial activity against Escherichia coli ATCC 25922 assessed as zone of inhibition at 50 ug per disc after 24 hrs by disc diffusion assay; format: functional; details: ATCC 25922, 24 h, read-out: DIZ
[17] = test system: Candida albicans; assay: Antimicrobial activity against Candida albicans ATCC 10231 assessed as zone of inhibition at 50 ug per disc after 48 hrs by disc diffusion assay; format: functional; details: ATCC 10231, 48 h, read-out: DIZ
[18] = test system: Bacillus subtilis; assay: Antimicrobial activity against Bacillus subtilis subsp. subtilis ATCC 6051 assessed as zone of inhibition at 50 ug per disc after 24 hrs by disc diffusion assay; format: functional; details: subsp. subtilis ATCC 6051, 24 h, read-out: DIZ
[19] = test system: Staphylococcus epidermidis; assay: Antimicrobial activity against Staphylococcus epidermidis ATCC 12228 assessed as zone of inhibition at 50 ug per disc after 24 hrs by disc diffusion assay; format: functional; details: ATCC 12228, 24 h, read-out: DIZ
[20] = test system: Candida parapsilosis; assay: Antimicrobial activity against Candida parapsilosis ATCC 90018 assessed as zone of inhibition at 50 ug per disc after 48 hrs by disc diffusion assay; format: functional; details: Lodderomyces parapsilosis, ATCC 90018, 48 h; read-out: DIZ
[21] = test system: Pseudomonas aeruginosa; assay: Antimicrobial activity against Pseudomonas aeruginosa ATCC 27853 assessed as zone of inhibition at 50 ug per disc after 24 hrs by disc diffusion assay; format: functional; details: ATCC 27853, 24 h, read-out: DIZ
[22] = Growth inhibition of human MRC5 cells at 134 uM after 72 hrs by XTT assay relative to control; format: cell-based; details: read-out: GI

| SMILES | selectivity ratio [1] | selectivity ratio [2] | pIC50 ([3]; read-out: IC50) | pIC50 [4] | pIC50 [5] | other results |
| --- | --- | --- | --- | --- | --- | --- |
| CC(C)c1ccc(CN2C=CC(=[N+]3CCCC3)CC2(C)C)cc1 | 11.7 | 0.054 | 6.75 | 5.49 | 7.82 | – |
| CC1(C)CC(=[N+]2CCCC2)C=CN1Cc1cccc2ccccc12 | 9.68 | 0.69 | 6.21 | 6.05 | 7.20 | – |
| CC1(C)CC(=[N+]2CCCC2)C=CN1Cc1ccc(Br)cc1.[Br-] | 445 | 0.8 | 4.94 | 4.84 | 7.59 | MSD [6]: 4 days; Activity [7]: 48.1%; inhibition at 72 h, 117 µM [8]: 27 to 56% |
| Cc1ccc(CN2C=CC(=[N+]3CCCC3)CC2(C)C)cc1 | 949 | 22.4 | 4.02 | 5.37 | 7.00 | – |
| COc1cc(CN2C=CC(=[N+]3CCCC3)CC2(C)C)cc(OC)c1OC | 174 | 11.8 | 3.72 | 4.79 | 5.96 | – |
| CC1(C)CC(=[N+]2CCCC2)C=CN1Cc1ccccc1Cl | 81.1 | 0.93 | 5.01 | 4.98 | 6.92 | – |
| CC1(C)CC(=[N+]2CCCC2)C=CN1Cc1ccccn1 | > 150 | > 3.26 | < 3.49 | 4.00 | 5.66 | – |
| CC(C)(C)c1ccc(CN2C=CC(=[N+]3CCCC3)CC2(C)C)cc1 | 0.43 | 0.025 | 7.77 | 6.17 | 7.40 | viability at 72 h, 123.3 µM [9]: 0 to 10% |
| CC1(C)CC(=[N+]2CCCC2)C=CN1Cc1ccccc1C#N | > 245 | > 3.77 | < 3.57 | 4.15 | 5.96 | – |
| CC1(C)CC(=[N+]2CCCC2)C=CN1Cc1ccc(Cl)cc1Cl | 69.5 | 0.23 | 5.52 | 4.89 | 7.37 | – |
| CC1(C)CC(=[N+]2CCCC2)C=CN1c1ccccc1 | – | – | – | – | 6.44 | – |
| CC1(C)CC(=[N+]2CCCC2)C=CN1Cc1ccccc1 | 94.8 | 0.2 | 4.91 | 4.21 | 6.89 | – |
| CC1(C)CC(=[N+]2CCCC2)C=CN1Cc1ccc2c(c1)OCO2 | 451 | 1.11 | 4.68 | 4.73 | 7.34 | – |
| CC1(C)CC(=[N+]2CCCC2)C=CN1Cc1ccc(F)cc1.[Br-] | > 2480 | > 6.94 | < 3.56 | 4.41 | 6.96 | MSD [6]: 4 days; Activity [7]: 31.6% |
| CC1(C)CC(=[N+]2CCCC2)C=CN1Cc1ccccc1C(F)(F)F | 38.6 | 0.71 | 5.16 | 5.01 | 6.74 | – |
| COc1ccc(CN2C=CC(=[N+]3CCCC3)CC2(C)C)cc1 | 1530 | 7.56 | 3.77 | 4.65 | 6.96 | – |
| CC1(C)CC(=[N+]2CCCC2)C=CN1Cc1ccc(Cl)cc1.[Cl-] | 743 | 1.02 | 4.70 | 4.71 | 7.57 | zone of inhibition at 50 µg/disc [10]: 7 mm; MIC [11]: 32 µg/mL; pIC50 [12]: 3.92; zone of inhibition at 50 µg/disc [13]: 14 mm; zone of inhibition at 50 µg/disc [14]: 21 mm; viability at 72 h, 147.7 µM [15]: 0 to 10%; zone of inhibition at 50 µg/disc [16]: 0 mm; zone of inhibition at 50 µg/disc [17]: 20 mm; MSD [6]: 9 days; zone of inhibition at 50 µg/disc [18]: 11 mm; Activity [7]: 45.8%; zone of inhibition at 50 µg/disc [19]: 22 mm; zone of inhibition at 50 µg/disc [20]: 0 mm; zone of inhibition at 50 µg/disc [21]: 0 mm |
| CC1(C)CC(=[N+]2CCCC2)C=CN1Cc1ccc(Cl)c(Cl)c1.[Cl-] | 5350 | 9.03 | 3.95 | 4.91 | 7.68 | MSD [6]: 4 days; Activity [7]: 39.9%; inhibition at 72 h, 134 µM [22]: 27 to 56% |
| CCN(CC)CCCC(C)Nc1ccnc2cc(Cl)ccc12 (stereo unspecified) [CHLOROQUINE] | – | – | – | – | – | MSD [6]: 20 days; Activity [7]: 99.6% |
| OC(Cn1cncn1)(Cn1cncn1)c1ccc(F)cc1F [FLUCONAZOLE] | – | – | – | – | – | zone of inhibition at 50 µg/disc [14]: 36 mm; zone of inhibition at 50 µg/disc [17]: 24 mm; zone of inhibition at 50 µg/disc [20]: 28 mm |
| NNC(=O)c1ccncc1 [ISONIAZID] | – | – | – | – | – | MIC [11]: 4 µg/mL (≈ 29.2 µM) |
| NC[C@H]1O[C@H](O[C@H]2[C@H](O)[C@@H](O[C@H]3O[C@H](CO)[C@@H](O)[C@H](N)[C@H]3O)[C@H](N)C[C@@H]2N)[C@H](O)[C@@H](O)[C@@H]1O [KANAMYCIN] | – | – | – | – | – | zone of inhibition at 50 µg/disc [13]: 17 mm; zone of inhibition at 50 µg/disc [16]: 14 mm; zone of inhibition at 50 µg/disc [18]: 13 mm |
| CC1(C)S[C@@H]2[C@H](NC(=O)Cc3ccccc3)C(=O)N2[C@H]1C(=O)O [PENICILLIN G] | – | – | – | – | – | zone of inhibition at 50 µg/disc [10]: 8 mm |
| COc1cc([C@@H]2c3cc4c(cc3[C@H](O)[C@H]3COC(=O)[C@H]23)OCO4)cc(OC)c1OC [PODOFILOX] | – | – | – | – | – | pIC50 [3]: 7.92 |
| CN(C)[C@@H]1C(O)=C(C(N)=O)C(=O)[C@@]2(O)C(O)=C3C(=O)c4c(O)cccc4[C@@](C)(O)[C@H]3C[C@@H]12 [TETRACYCLINE] | – | – | – | – | – | zone of inhibition at 50 µg/disc [19]: 13 mm |
